{"source": "paper PMC6380956", "about": "(Biochemistry, 2019)", "key": {"MjCobT [1]": {"biological_target": "T1, MjCobT (Methanocaldococcus jannaschii, UniProt Q58993)", "T1 sequence (Q58993 1-350)": "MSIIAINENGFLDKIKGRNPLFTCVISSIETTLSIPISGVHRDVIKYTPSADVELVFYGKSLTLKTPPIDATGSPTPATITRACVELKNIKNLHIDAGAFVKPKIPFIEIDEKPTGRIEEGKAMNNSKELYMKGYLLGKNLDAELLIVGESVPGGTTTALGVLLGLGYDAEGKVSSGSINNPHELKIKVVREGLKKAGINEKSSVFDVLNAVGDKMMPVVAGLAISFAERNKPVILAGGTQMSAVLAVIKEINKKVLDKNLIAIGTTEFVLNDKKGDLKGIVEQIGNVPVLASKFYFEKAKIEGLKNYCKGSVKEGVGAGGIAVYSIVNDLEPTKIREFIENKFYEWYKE", "test": "isothermal titration calorimetry", "format": "binding"}, "[2]": {"biological_target": "Methanocaldococcus jannaschii CobT (NaMN:DMB phosphoribosyltransferase) (Methanocaldococcus jannaschii)", "test": "AUC"}, "MjCobT [3]": {"biological_target": "T1, MjCobT", "test": "product formation by purified enzyme from NaMN and [[…]-14C]-DMB, TLC", "format": "biochemical"}}, "data": [{"compound": "O=C([O-])c1ccc[n+]([C@@H]2O[C@H](COP(=O)(O)O)[C@@H](O)[C@H]2O)c1", "note": "[NaMN]", "values": [{"measurement": "Kd", "setting": "MjCobT [1]", "result": 3.2, "unit": "µM"}]}, {"compound": "Methanocaldococcus jannaschii CobT (NaMN:DMB phosphoribosyltransferase) (enzyme)", "values": [{"measurement": "percent of the c(s) distribution in the dimer species", "setting": "[2]", "result": 81.3, "unit": "%"}, {"measurement": "stoichiometry N", "setting": "[2]", "result": 2}]}, {"compound": "Cc1cc2ncn([C@H]3O[C@H](COP(=O)(O)O)[C@@H](O)[C@H]3O)c2cc1C", "note": "[α-RP]", "values": [{"measurement": "product formation by purified enzyme from NaMN and [2-14C]-DMB, TLC", "setting": "MjCobT [3]", "result": "the amount of MjCobT-generated α-RP is displayed as a function of time for each concentration of NaMN tested"}]}]}
